Measured values taken from patent US20180170941A1 (priority 2016, published 2018).

Each molecule was assayed against T1, α5β3γ2 GABAA receptors (Ltk cell membranes) (Homo sapiens, UniProt P18507+P31644) (assay: Binding activity of test compounds on GABAAR: inhibition of [3H]Ro15-1788 binding). Conditions: not given.
T1 construct: membranes
Description: Tissue culture and Membrane Preparation: The binding was performed on Ltk cells stably expressing GABAA receptors: α1β1γ2, α2β3γ2, α3β3γ2 and α5β3γ2 (provided by Merck Co., NJ, USA). Cells were seeded in 100 mm culture plates in DMEM/F12 medium containing 10% serum and antibiotics in 5% CO2 and allowed to grow for 1-2 days. GABAAR expression was then induced by dexamethasone as follows: 0.5 μM for 1 day for α5 containing and 2μM for 3 days for α1, α2 and α3 containing GABAARs. After induction, cells were collected by scraping into Dulbecco's Phosphate buffered saline (DPBS, pH 7.4, Invitrogen, Carlsbad, Calif., USA) and centrifuged at 150×g for 10 min. The pellet was washed twice by re-suspension and centrifugation. The cell pellets from at least 5 different preps were combined, suspended in the binding assay buffer (50 mM KH2P4; 1 mM EDTA; 0.2 M KCl, pH 7.4) and membranes prepared by sonication (3-5 times, 30 sec) using Branson Sonifier 150 (G.Heinmann, Germany). Protein content was determined using BCA assay (Bio-Rad Labs, Reinach, Switzerland) with Bovine Serum Albumin (Sigma Aldrich, St. Louis, Mo., USA) as the standard. Aliquots were prepared and stored at −20° C. for further use in binding assays.
Ligand Binding: Saturation binding curves were obtained by incubating membranes with increasing concentrations (0.01-8 nM) of [^3H]Ro15-1788 (Flumazepil, 75-85 Ci/mmol, PerkinElmer, MA, USA), with nonspecific binding measured in the presence of 10 μM diazepam.
All binding assays were performed for 1 h at 4° C. in assay buffer. The total assay volume was 0.5 ml containing 0.2 mg/ml protein for α5 and 0.4 mg/ml for α1, α2, and α3 containing GABAAR membranes. Incubations were terminated by filtration through GF/B filters using a 24-Cell Harvestor (Brandel, Gaithersburg, Md., USA) followed by 3 washes with ice-cold assay buffer. Filters were transferred to scintillation vials, 5 ml scintillation liquid added, vortex-mixed and kept in dark. Next day, radioactivity was obtained using a scintillation counter (Beckman Coulter, Brea, Calif., USA). All assays were performed in triplicate.
Data Analyses: Saturation and inhibition curves were obtained using GraphPad Prism software (GraphPad Software, Inc., CA, USA).

T1 sequence (P31644 32-462): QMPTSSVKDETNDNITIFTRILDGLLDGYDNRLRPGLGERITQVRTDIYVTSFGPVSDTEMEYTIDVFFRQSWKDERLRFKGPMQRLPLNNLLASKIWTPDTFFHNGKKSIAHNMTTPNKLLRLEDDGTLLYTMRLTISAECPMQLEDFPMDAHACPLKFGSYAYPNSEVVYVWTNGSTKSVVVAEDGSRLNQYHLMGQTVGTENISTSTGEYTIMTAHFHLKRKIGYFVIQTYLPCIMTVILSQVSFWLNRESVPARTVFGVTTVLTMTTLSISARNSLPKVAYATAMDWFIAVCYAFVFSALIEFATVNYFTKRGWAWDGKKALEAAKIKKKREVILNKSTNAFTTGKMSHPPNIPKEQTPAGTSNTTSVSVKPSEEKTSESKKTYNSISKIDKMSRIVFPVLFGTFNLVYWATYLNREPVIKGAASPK
T1 sequence (P28472 26-473 partner): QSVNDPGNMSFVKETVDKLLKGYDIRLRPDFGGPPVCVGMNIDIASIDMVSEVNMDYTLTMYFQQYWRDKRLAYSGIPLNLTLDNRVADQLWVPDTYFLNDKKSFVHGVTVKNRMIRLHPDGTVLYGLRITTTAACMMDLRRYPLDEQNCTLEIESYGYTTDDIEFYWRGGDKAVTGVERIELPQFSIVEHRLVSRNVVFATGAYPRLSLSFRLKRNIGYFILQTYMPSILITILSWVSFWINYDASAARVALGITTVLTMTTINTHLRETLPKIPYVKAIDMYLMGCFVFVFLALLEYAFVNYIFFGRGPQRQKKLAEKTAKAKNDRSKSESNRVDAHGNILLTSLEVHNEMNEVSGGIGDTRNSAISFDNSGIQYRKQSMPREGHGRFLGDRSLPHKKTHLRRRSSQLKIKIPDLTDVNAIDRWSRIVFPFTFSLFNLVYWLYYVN
T1 sequence (P18507 40-475): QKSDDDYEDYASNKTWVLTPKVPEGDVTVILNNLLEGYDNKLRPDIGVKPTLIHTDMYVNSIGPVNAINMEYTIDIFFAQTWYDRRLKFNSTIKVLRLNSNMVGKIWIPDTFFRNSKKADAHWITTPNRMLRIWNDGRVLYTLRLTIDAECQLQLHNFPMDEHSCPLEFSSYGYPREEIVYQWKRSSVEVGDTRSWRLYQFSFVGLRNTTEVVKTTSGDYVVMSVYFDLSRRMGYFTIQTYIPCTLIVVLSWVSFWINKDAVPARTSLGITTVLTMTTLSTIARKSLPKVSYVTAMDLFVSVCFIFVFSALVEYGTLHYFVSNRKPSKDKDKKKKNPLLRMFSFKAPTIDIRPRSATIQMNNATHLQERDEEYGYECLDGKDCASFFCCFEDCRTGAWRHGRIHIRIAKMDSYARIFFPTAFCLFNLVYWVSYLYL

CCC(=O)c1ncn2c1Cn1c(COc3ccccc3)nnc1-c1cc(OC)ccc1-2 [Compound 123] and COc1ccc2c(c1)-c1nnc(COc3ccccc3)n1Cc1c(Cc3ccccc3)ncn1-2 [Compound 142] cannot be ordered by Ki: > 1000 nM for the first, > 1000 nM for the second.

COCc1nnc2n1Cc1cncn1-c1ccc(OC)cc1-2 [Compound 131] and Cc1ccc(S(=O)(=O)c2ncn3c2Cc2c(C)nnn2-c2cc(F)ccc2-3)cc1 [Compound 143] cannot be ordered by Ki: > 1000 nM for the first, > 1000 nM for the second.

Same assay, conditions: GABA α5 Binding Ki Values, inhibition of [3H]Ro15-1788 binding; reported as ranges

Cc1nnn2c1Cc1c(C(=O)OC(C)C)ncn1-c1ccc(F)cc1-2 [Compound 112] and Cc1nnn2c1Cc1c(C(=O)OC(C)C)ncn1-c1ccccc1-2 [Compound 153] cannot be ordered by Ki: < 100 nM for the first, < 100 nM for the second.

First: Cc1nnn2c1Cc1c(C(=O)OCC(C)(C)C)ncn1-c1ccc(F)cc1-2 [Compound 113]
Second: Cc1nnn2c1Cc1c(C(=O)OCC(F)(F)F)ncn1-c1ccc(F)cc1-2 [Compound 114]
The Ki of the first is higher: 100 to 1000 nM for the first, < 100 nM for the second. The second binds more tightly here.

First: Cc1nnn2c1Cc1c(C#N)ncn1-c1ccccc1-2 [Compound 115]
Second: C#Cc1ncn2c1Cc1c(C)nnn1-c1ccccc1-2 [Compound 161]
The Ki of the first is higher: 100 to 1000 nM for the first, < 100 nM for the second.

Cc1nnn2c1Cc1c(C#N)ncn1-c1ccc(F)cc1-2 [Compound 116] and Cc1ncn2c1Cc1c(C)nnn1-c1cc(F)ccc1-2 [Compound 135] cannot be ordered by Ki: > 1000 nM for the first, > 1000 nM for the second.

First: Cc1nnn2c1Cc1c(C(N)=O)ncn1-c1ccccc1-2 [Compound 117]
Second: CCC(=O)c1ncn2c1Cc1c(C)nnn1-c1ccccc1-2 [Compound 125]
The Ki of the first is higher: > 1000 nM for the first, 100 to 1000 nM for the second.

First: COc1ccc2c(c1)-c1nnc(COc3ccccc3)n1Cc1c(-c3nc(C)no3)ncn1-2 [Compound 118]
Second: Cc1noc(-c2ncn3c2Cn2c(COc4ccccc4)nnc2-c2cc(F)ccc2-3)n1 [Compound 138]
The Ki of the first is lower: < 100 nM for the first, 100 to 1000 nM for the second.

First: COc1ccc2c(c1)-c1nnc(COc3ccccc3)n1Cc1c(C(=O)OCC(C)(C)C)ncn1-2 [Compound 119]
Second: COc1ccc2c(c1)-c1nnc(COc3ccccc3)n1Cc1c(C(=O)OC(C)C)ncn1-2 [Compound 120]
The Ki of the first is higher: 100 to 1000 nM for the first, < 100 nM for the second.

First: Cc1ncn2c1Cc1c(C)nnn1-c1ccccc1-2 [Compound 121]
Second: Cc1noc(-c2ncn3c2Cc2c(C)nnn2-c2ccccc2-3)n1 [Compound 126]
The Ki of the first is higher: > 1000 nM for the first, < 100 nM for the second.

COc1ccc2c(c1)-c1nnc(COc3ccccc3)n1Cc1c(C#N)ncn1-2 [Compound 122] and N#Cc1ncn2c1Cn1c(COc3ccccc3)nnc1-c1cc(F)ccc1-2 [Compound 157] cannot be ordered by Ki: < 100 nM for the first, < 100 nM for the second.

First: COc1ccc2c(c1)-c1nnc(COc3ccccc3)n1Cc1c(C(F)F)ncn1-2 [Compound 124]
Second: COc1ccc2c(c1)-c1nnc(COc3ccccc3)n1Cc1c(-c3noc(C)n3)ncn1-2 [Compound 162]
The Ki of the first is higher: 100 to 1000 nM for the first, < 100 nM for the second. The second binds more tightly here.

Cc1nc(-c2ncn3c2Cc2c(C)nnn2-c2ccccc2-3)no1 [Compound 127] and Cc1nnn2c1Cc1c(-c3noc(C(C)C)n3)ncn1-c1ccccc1-2 [Compound 133] cannot be ordered by Ki: < 100 nM for the first, < 100 nM for the second.

COCc1nnc2n1Cc1c(-c3nc(C)no3)ncn1-c1ccc(OC)cc1-2 [Compound 128] and COCc1nnc2n1Cc1c(-c3nc(C(C)C)no3)ncn1-c1ccc(OC)cc1-2 [Compound 130] cannot be ordered by Ki: < 100 nM for the first, < 100 nM for the second.

COCc1nnc2n1Cc1c(Br)ncn1-c1ccc(OC)cc1-2 [Compound 129] and COCc1nnc2n1Cc1c(-c3noc(C)n3)ncn1-c1ccc(OC)cc1-2 [Compound 164] cannot be ordered by Ki: < 100 nM for the first, < 100 nM for the second.

Cc1nnn2c1Cc1c(-c3nc(C(C)C)no3)ncn1-c1ccccc1-2 [Compound 132] and COc1ccc2c(c1)-n1nnc(C)c1Cc1c(-c3nc(C)no3)ncn1-2 [Compound 167] cannot be ordered by Ki: < 100 nM for the first, < 100 nM for the second.

CCOCc1ncn2c1Cc1c(COCC)nnn1-c1ccccc1-2 [Compound 134] and Cc1cnc(-c2ncn3c2Cc2c(C)nnn2-c2ccccc2-3)nc1 [Compound 146] fall in the same range of Ki: 100 to 1000 nM for the first, 100 to 1000 nM for the second.

First: Cc1nnn2c1Cc1c(Br)ncn1-c1ccc(F)cc1-2 [Compound 136]
Second: Cc1nnn2c1Cc1c(-c3cnn(C)c3)ncn1-c1ccc(F)cc1-2 [Compound 152]
The Ki of the first is lower: 100 to 1000 nM for the first, > 1000 nM for the second. The first binds more tightly here.

CCOC(=O)c1ncn2c1Cn1c(COc3ccccc3)nnc1-c1cc(F)ccc1-2 [Compound 137] and CC(C)OC(=O)c1ncn2c1Cn1c(COc3ccccc3)nnc1-c1cc(F)ccc1-2 [Compound 156] cannot be ordered by Ki: < 100 nM for the first, < 100 nM for the second.

Compared with Cc1nnn2c1Cc1c(-c3ccccc3)ncn1-c1ccc(F)cc1-2 [Compound 139], Cc1nnn2c1Cc1c(-c3cccnc3)ncn1-c1ccc(F)cc1-2 [Compound 140] is higher in Ki: 100 to 1000 nM for the first, > 1000 nM for the second.

First: CC(C)c1noc(-c2ncn3c2Cn2c(COc4ccccc4)nnc2-c2cc(F)ccc2-3)n1 [Compound 141]
Second: CC(C)c1nc(-c2ncn3c2Cn2c(COc4ccccc4)nnc2-c2cc(F)ccc2-3)no1 [Compound 147]
The Ki of the first is higher: 100 to 1000 nM for the first, < 100 nM for the second. The second binds more tightly here.

First: Cc1ccc(S(=O)(=O)c2ncn3c2Cc2c(C)nnn2-c2cc(F)ccc2-3)cc1 [Compound 143]
Second: Cc1cc(-c2ncn3c2Cc2c(C)nnn2-c2cc(F)ccc2-3)ccn1 [Compound 154]
The Ki of the first is lower: 100 to 1000 nM for the first, > 1000 nM for the second.

First: Cc1cnc(-c2ncn3c2Cc2c(C)nnn2-c2cc(F)ccc2-3)nc1 [Compound 144]
Second: Cc1nc(-c2ncn3c2Cc2c(C)nnn2-c2cc(F)ccc2-3)no1 [Compound 145]
The Ki of the first is higher: 100 to 1000 nM for the first, < 100 nM for the second.

Cc1nc(-c2ncn3c2Cn2c(COc4ccccc4)nnc2-c2cc(F)ccc2-3)no1 [Compound 148] and CCc1nc(-c2ncn3c2Cn2c(COc4ccccc4)nnc2-c2cc(F)ccc2-3)no1 [Compound 158] cannot be ordered by Ki: < 100 nM for the first, < 100 nM for the second.

Cc1nnn2c1Cc1c(-c3noc(C(C)C)n3)ncn1-c1ccc(F)cc1-2 [Compound 149] and CCc1nc(-c2ncn3c2Cc2c(C)nnn2-c2cc(F)ccc2-3)no1 [Compound 155] cannot be ordered by Ki: < 100 nM for the first, < 100 nM for the second.

Cc1nnn2c1Cc1c(-c3noc(C(F)(F)F)n3)ncn1-c1ccc(F)cc1-2 [Compound 150] and Cc1nnn2c1Cc1c(-c3noc(C(C)(C)C)n3)ncn1-c1ccc(F)cc1-2 [Compound 160] cannot be ordered by Ki: < 100 nM for the first, < 100 nM for the second.

Cc1nnn2c1Cc1c(-c3ncon3)ncn1-c1ccc(F)cc1-2 [Compound 151] and COc1ccc2c(c1)-n1nnc(COc3cccc(F)c3)c1Cc1c(-c3noc(C)n3)ncn1-2 [Compound 168] cannot be ordered by Ki: < 100 nM for the first, < 100 nM for the second.

Fc1ccc2c(c1)-c1nnc(COc3ccccc3)n1Cc1c(-c3noc(C(F)(F)F)n3)ncn1-2 [Compound 159] and COc1ccc2c(c1)-c1nnc(COc3ccccc3)n1Cc1c(-c3noc(C(C)C)n3)ncn1-2 [Compound 171] cannot be ordered by Ki: < 100 nM for the first, < 100 nM for the second.

COc1ccc2c(c1)-c1nnc(COc3ccc(F)cc3)n1Cc1c(-c3noc(C)n3)ncn1-2 [Compound 163] and COc1ccc2c(c1)-c1nnc(COc3ccc(F)cc3)n1Cc1c(-c3noc(C(C)C)n3)ncn1-2 [Compound 172] cannot be ordered by Ki: < 100 nM for the first, < 100 nM for the second.

COc1ccc2c(c1)-c1nnc(COCc3ccccc3)n1Cc1c(-c3noc(C)n3)ncn1-2 [Compound 165] and COc1ccc2c(c1)-c1nnc(COCc3ccccc3)n1Cc1c(C#N)ncn1-2 [Compound 166] cannot be ordered by Ki: < 100 nM for the first, < 100 nM for the second.

COCc1nnc2n1Cc1c(-c3noc(C(C)C)n3)ncn1-c1ccc(OC)cc1-2 [Compound 169] and CCOCc1nnc2n1Cc1c(-c3noc(C(C)C)n3)ncn1-c1ccc(OC)cc1-2 [Compound 173] cannot be ordered by Ki: < 100 nM for the first, < 100 nM for the second.

First: COc1ccc2c(c1)-n1nnc(CN3CCCC3)c1Cc1c(-c3nc(C(C)C)no3)ncn1-2 [Compound 170]
Second: COc1ccc2c(c1)-n1nnc(COc3ccccc3)c1Cc1c(-c3noc(C)n3)ncn1-2 [Compound 182]
The Ki of the first is higher: 100 to 1000 nM for the first, < 100 nM for the second.

COc1ccc2c(c1)-c1nnc(COc3ccccc3F)n1Cc1c(-c3noc(C(C)C)n3)ncn1-2 [Compound 174] and COc1ccc2c(c1)-c1nnc(COc3ccccc3Cl)n1Cc1c(-c3noc(C(C)C)n3)ncn1-2 [Compound 175] cannot be ordered by Ki: < 100 nM for the first, < 100 nM for the second.

COc1ccc2c(c1)-c1nnc(COc3cccnc3)n1Cc1c(-c3noc(C(C)C)n3)ncn1-2 [Compound 176] and COc1ccc2c(c1)-c1nnc(COc3cccc(F)c3)n1Cc1c(-c3noc(C(C)C)n3)ncn1-2 [Compound 179] cannot be ordered by Ki: < 100 nM for the first, < 100 nM for the second.

COc1ccc2c(c1)-c1nnc(COc3cccc4ccccc34)n1Cc1c(-c3noc(C(C)C)n3)ncn1-2 [Compound 177] and COc1ccc2c(c1)-c1nnc(COC3CCCC3)n1Cc1c(-c3noc(C(C)C)n3)ncn1-2 [Compound 178] cannot be ordered by Ki: < 100 nM for the first, < 100 nM for the second.

COc1ccc2c(c1)-n1nnc(COc3ccc(F)cc3)c1Cc1c(-c3noc(C)n3)ncn1-2 [Compound 180] and COc1ccc2c(c1)-n1nnc(COc3ccccc3F)c1Cc1c(-c3noc(C)n3)ncn1-2 [Compound 181] cannot be ordered by Ki: < 100 nM for the first, < 100 nM for the second.
